Key:
Format in all cases: physicochemical
[1] = Dissolution test, second method of Japanese Pharmacopoeia (paddle method); conditions: after 60 minutes; paddle method 50 rpm, 0.1 w/v % sodium lauryl sulfate solution 900 mL, 37° C.
Procedure: Dissolution test was performed following the second method of Japanese Pharmacopoeia dissolution test method (paddle method, 50 rpm) using a 0.1 w/v % deaerated sodium lauryl sulfate solution (900 mL, 37° C.). The tablets (133.00 mg/tablet; containing 5 mg of bulk drug) produced in Example 1 were put into the test solution as they were. For referential control, the bulk drug consisting crystal was put into the test solution as it was. The temperature was adjusted to 37±0.1° C.

[2] = Stability test under heating condition at 80° C. (HPLC impurities, powder X-ray diffraction)
Procedure: Each of the powder formulations obtained in Example 3 was tested under heating condition at 80° C. The purity was determined by high performance liquid chromatography (measured wave length; 242 nm). The state of crystallization was estimated by powder X-ray diffraction.

[3] = Stability test under humid condition at 40° C.; conditions: Immediately after Formulation
Procedure: Each of the powder formulations obtained in Example 3 was tested under heating condition at 40° C. under humid condition.

[4] = 80° C., Open Condition, After 3 days

CCOC(=O)C(COC(=O)Cc1ccc(NC(=O)c2ccccc2-c2ccc(C(F)(F)F)cc2)c(C(=O)N(C)C)c1)(C(=O)OCC)c1ccccc1 [MTP Inhibiting Compound, diethyl 2-(2-{3-dimethylcarbamoyl-4-[(4′-trifluoromethyl-biphenyl-2-carbonyl)-amino]-phenyl}-acetoxymethyl)-2-phenyl-malonate]
dissolution [1]: did not dissolve
Impurities Max (%) [2, 4]: 0.08%
Impurities Total (%) [2, 4]: 0.24%
Impurities Max (%) ([2]; Immediately after Formulation): 0.28%
Impurities Total (%) ([2]; Immediately after Formulation): 0.40%
Impurities Max (%) [3]: 0.11%
Impurities Total (%) [3]: 0.40%

From US20060153913A1, “Solid formulation with improved solubility and stability, and method for producing said formulation” (priority 2004, published 2006)
